Where a name gives a salt, the structure may show the parent alone. Read-outs that look alike come from different tables or passages of the source.
Target: T1, SF9 affinity purified rat FPT (Rattus norvegicus, UniProt Q02293+Q04631)
T1 construct: made in house; host or cells: Sf9 insect cells
Test: PFT (farnesyl protein transferase) inhibitory activity, radiolabeled farnesyl pyrophosphate / biotinyl peptide bead assay
Type: biochemical
Settings: read-out: FTase, IC50
Protocol: The protein:farnesyl transferase (PFT) or farnesyl protein transferase (FPT) inhibitory activity of compounds of the present invention were assayed in HEPES buffer (pH 7.4) containing 5 mM potassium phosphate and 20 μM ZnCl2. The solution also contained 5 mM DTT (dithiothreitol), 5 mM MgCl2, and 0.1% PEG 8000. Assays were performed in 96 well plates (Wallec) and employed solutions composed of varying concentrations of a compound of the present invention in 10% DMSO (dimethylsulfoxide). Upon addition of both substrates, radiolabeled farnesyl pyrophosphate ([1^3H], specific activity 15-30 Ci/mmol, final concentration 134 nM) and (biotinyl)-Ahe-Thr-Lys-Cys-Val-Ile-Met ([3aS[3a alpha, 4 beta, 6a alpha]-hexahydro-2-oxo-1H-thieno[3,4-d]imidazole-5-pentanoic acid]-[7-aminoheptanoic acid]-Thr-Lys-Cys-Val-Ile-Met) (Ahe is 7-aminoheptanoic acid, Thr is threonine, Lys is lysine, Cys is cysteine, Val is valine, Ile is isoleucine, and Met is methionine) (final concentration 0.2 μM), the enzyme reaction was started by addition of SF9 affinity purified rat FPT. After incubation at 30° C. for 30 minutes, the reaction was terminated by diluting the reaction 2.5-fold with a stop buffer containing 1.5 M magnesium acetate, 0.2 M H3PO4, 0.5% BSA (bovine serum albumin), and strepavidin beads (Amersham) at a concentration of 1.3 mg/mL. After allowing the plate to settle for 30 minutes at room temperature, radioactivity was quantitated on a microbeta counter (Model 1450, Wallec). The assay was also carried out without 5 mM potassium phosphate.

[1] = average of two tests unless n is given in parentheses
[2] = Examples 56-74, parallel synthesis array: single test, values adjusted to account for the purity of the sample

Row | SMILES | IC50 [1] | IC50 [2]
1 | O=C1C(=Cc2ccccn2)CCc2cc(OCCn3ccnc3)ccc21 [Example 3, 6-(2-Imidazole-1-yl-ethoxy)-2-pyridin-2-ylmethylene-3,4-dihydro-2H-naphthalen-1-one] | 2400 nM | –
2 | O=C1/C(=C/C2CCCCC2)CCc2cc(OCCn3ccnc3)ccc21 [Example 45, 2-[(E)-1-Cyclohexylmethylidene]-6-[2-(1H-1-imidazolyl)ethoxy]-1,2,3,4-tetrahydro-1-naphthalenone, hydrochloride] | 5800 nM | –
3 | O=C1CCCc2cc(OCCn3ccnc3)ccc21 [Example 1, 6-(2-Imidazole-1-yl-ethoxy)-3,4-dihydro-2H-naphthalen-1-one] | 2000 nM | –
4 | O=C1/C(=C/c2ccc(Cl)c(Cl)c2)CCc2cc(OCCn3ccnc3)ccc21 [Example 63, 2-[(E)-1-(3,4-Dichlorophenyl)methylidene]-6-[2-(1H-1-imidazolyl)ethoxy]-1,2,3,4-tetrahydro-1-naphthalenone] | – | 890 nM
5 | CC(C)(CNC(=O)CON=C1CCCc2cc(OCCn3ccnc3)ccc21)c1ccccc1 [Example 55, 2-[6-(2-Imidazol-1-yl-ethoxy)-3,4-dihydro-2H-naphthalen-1-ylideneaminooxy]-N-(2-methyl-2-phenyl-propyl)-acetamide] | 600 nM | –
6 | Cc1nccn1CCOc1ccc2c(c1)CCCC2=O [Example 2, 6-[2-(2-Methyl-imidazole-1-yl)-ethoxy]-3,4-dihydro-2H-naphthalen-1-one] | 8400 nM | –
7 | O=C1CCCc2cc(OCCc3c[nH]cn3)ccc21 [Example 27, 6-[2-(1H-Imidazole4-yl)-ethoxy]-3,4-dihydro-2H-naphthalen-1-one, monohydrochloride] | 1790 nM | –
8 | O=C1/C(=C/c2ccccc2Cl)CCc2cc(OCCn3ccnc3)ccc21 [Example 56, 2-[(E)-1-(2-Chlorophenyl)methylidene]-6-[2-(1H-1-imidazolyl)ethoxy]-1,2,3,4-tetrahydro-1-naphthalenone] | – | 360 nM
9 | O=C1/C(=C/c2cccs2)COc2cc(OCCn3ccnc3)ccc21 [Example 52, 7-[2-(1H-1-Imidazolyl)ethoxy]-3-[(E)-1-(2-thienyl)methylidene]4-chromanone] | 220 nM | –
10 | O=C1/C(=C/c2ccc3c(c2)OCO3)CCc2cc(OCCn3ccnc3)ccc21 [Example 59, 2-[(E)-1-(1,3-Benzodioxol-5-yl)methylidene]-6-[2-(1H-1-imidazolyl)ethoxy]-1,2,3,4-tetrahydro-1-naphthalenone] | – | 210 nM
11 | O=C1/C(=C/c2cccc(Cl)c2)CCc2cc(OCCn3ccnc3)ccc21 [Example 57, 2-[(E)-1-(3-Chlorophenyl)methylidene]-6-[2-(1H-1-imidazolyl)ethoxy]-1,2,3,4-tetrahydro-1-naphthalenone] | – | 420 nM
12 | CC(=C1CCc2cc(OCCc3c[nH]cn3)ccc2C1=O)c1ccccc1 [Example 40, 6-[2-(1H-Imidazole-4-yl)-ethoxy]-2-(1-phenyl-ethylidene)-3,4-dihydro-2H-naphthalen-1-one] | 4700 nM | –
13 | CCN(CC)CCOc1ccc(C=C2CCc3cc(OCCn4ccnc4)ccc3C2=O)cc1 [Example 8, 2-[4-(2-Diethylamino-ethoxy)-benzylidene]-6-(2-imidazole-1-yl-ethoxy)-3,4-dihydro-2H-naphthalen-1-one] | 11900 nM | –
14 | O=C1C(=Cc2ccccc2)CCc2cc(OCCn3ccnc3)ccc21 [Example 9, 2-Benzylidene-6-(2-imidazole-1-yl-ethoxy)-3,4-dihydro-2H-naphthalen-1-one] | 240 nM | –
15 | O=C(O)c1ccc(C=C2CCc3cc(OCCc4c[nH]cn4)ccc3C2=O)s1 [Example 38, 5-{6-[2-(1H-Imidazol-4-yl)-ethoxy]-1-oxo-3,4-dihydro-1H-naphthalen-2-ylidenemethyl}-thiophene-2-carboxylic acid] | 4300 nM | –
16 | O=C1/C(=C/c2cc(Cl)cc(Cl)c2)CCc2cc(OCCn3ccnc3)ccc21 [Example 64, 2-[(E)-1-(3,5-Dichlorophenyl)methylidene]-6-[2-(1H-1-imidazolyl)ethoxy]-1,2,3,4tetrahydro-1-naphthalenone] | – | 570 nM
17 | NC(=O)c1ccc(C=C2CCc3cc(OCCc4c[nH]cn4)ccc3C2=O)cc1 [Example 33, 4-{6-[2-(1H-Imidazole-4-yl)-ethoxy]-1-oxo-3,4-dihydro-1H-naphthalen-2-ylidenemethyl}-benzamide, monohydrochloride] | 7300 nM | –
18 | O=C1C(=Cc2ccc(Cl)s2)CCc2cc(OCCc3c[nH]cn3)ccc21 [Example 36, 2-(5-Chloro-thiophen-2-ylmethylene)-6-[2-(1H-imidazole-4-yl)-ethoxy]-3,4-dihydro-2H-naphthalen-1-one, hydrochloride] | 3500 nM | –
19 | COc1ccc(OC)c(/C=C2\CCc3cc(OCCn4ccnc4)ccc3C2=O)c1 [Example 65] | – | 630 nM
20 | O=C1/C(=C/c2cccc(Cl)c2Cl)CCc2cc(OCCn3ccnc3)ccc21 [Example 61, 2-[(E)-1-(2,3-Dichlorophenyl)methylidene]-6-[2-(1H-1-imidazolyl)ethoxy]-1,2,3,4-tetrahydro-1-naphthalenone] | – | 570 nM
21 | O=C(O)c1ccc(C=C2CCc3cc(OCCc4c[nH]cn4)ccc3C2=O)cc1 [Example 35, 4-{6-[2-(1H-Imidazole-4-yl)-ethoxy]-1-oxo-3,4-dihydro-1H-naphthalen-2-ylidenemethyl}-benzoic acid, ditrifluoroacetate] | 2000 nM | –
22 | COc1ccccc1C=C1CCc2cc(OCCn3ccnc3)ccc2C1=O [Example 25, 6-(2-Imidazol-1-yl-ethoxy)-2-(2-methoxy-benzylidene)-3,4-dihydro-2H-naphthalen-1-one] | 2500 nM | –
23 | O=C1/C(=C/c2ccc(Cl)cc2)CCc2cc(OCCn3ccnc3)ccc21 [Example 58, 2-[(E)-1-(4-Chlorophenyl)methylidene]-6-[2-(1H-1-imidazolyl)ethoxy]-1,2,3,4-tetrahydro-1-naphthalenone] | – | 170 nM
24 | O=C1/C(=C/c2ccc(F)cc2)CCc2cc(OCCn3ccnc3)ccc21 [Example 60, 2-[(E)-1-(4-Fluorophenyl)methylidene]-6-[2-(1H-1-imidazolyl)ethoxy]-1,2,3,4-tetrahydro-1-naphthalenone] | – | 180 nM

Results, then the molecule that gave them:

Row | IC50 [1] | IC50 [2] | SMILES
25 | – | 1140 nM | COc1cccc(/C=C2\CCc3cc(OCCn4ccnc4)ccc3C2=O)c1 [Example 73, 6-[2-(1H-1-Imidazolyl)ethoxy]-2-[(E)-1-(3-methoxyphenyl)methylidene]-1,2,3,4-tetrahydro-1-naphthalenone]
26 | – | 110 nM | CN(C)c1ccc(/C=C2\CCc3cc(OCCn4ccnc4)ccc3C2=O)cc1 [Example 71]
27 | – | 1200 nM | CC(C)(C)c1ccc(/C=C2\CCc3cc(OCCn4ccnc4)ccc3C2=O)cc1 [Example 72, 2-(E)-1-[4-(tert-Butyl)phenyl]methylidene-6-[2-(1H-1-imidazolyl)ethoxy]-1,2,3,4-tetrahydro-1-naphthalenone]
28 | – | 320 nM | O=C1/C(=C/c2ccc(I)cc2)CCc2cc(OCCn3ccnc3)ccc21 [Example 70, 6-[2-(1H-1-Imidazolyl)ethoxy]-2-[(E)-1-(4-iodophenyl)methylidene]-1,2,3,4-tetrahydro-1-naphthalenone]
29 | – | 590 nM | COc1cc(OC)c(/C=C2\CCc3cc(OCCn4ccnc4)ccc3C2=O)c(OC)c1 [Example 68, 6-[2-(1H-1-Imidazolyl)ethoxy]-2-[(E)-1-(2,4,6-trimethoxyphenyl)methylidene]-1,2,3,4-tetrahydro-1-naphthalenone]
30 | – | 1890 nM | Cc1cccc(/C=C2\CCc3cc(OCCn4ccnc4)ccc3C2=O)c1 [Example 74, 6-[2-(1H-1-Imidazolyl)ethoxy]-2-[(E)-1-(3-methylphenyl)methylidene]-1,2,3,4-tetrahydro-1-naphthalenone]
31 | – | 710 nM | O=C1/C(=C/c2ccccc2C(F)(F)F)CCc2cc(OCCn3ccnc3)ccc21 [Example 67, 6-[2-(1H-1-Imidazolyl)ethoxy]-2-(E)-1-[2-(trifluoromethyl)phenyl]methylidene-1,2,3,4-tetrahydro-1-naphthalenone]
32 | 37 nM | – | O=C1C(=Cc2cccs2)CCc2cc(OC(Cn3ccnc3)c3ccccc3)ccc21 (centres unmarked) [Example 81, 6-(2-Imidazol-1-yl-1-phenyl-ethoxy)-2-thiophen-2-ylmethylene-3,4-dihydro-2H-naphthalen-1-one]
33 | – | 1300 nM | COc1ccc(/C=C2\CCc3cc(OCCn4ccnc4)ccc3C2=O)c(OC)c1OC [Example 69, 6-[2-(1H-1-Imidazolyl)ethoxy]-2-[(E)-1-(2,3,4-trimethoxyphenyl)methylidene]-1,2,3,4-tetrahydro-1-naphthalenone]
34 | 73 nM | – | O=C1CCCc2cc(OC(Cn3ccnc3)c3ccccc3)ccc21 (centres unmarked) [Example 80, 6-[2-(1H-1-Imidazolyl)-1-phenylethoxy]-1,2,3,4-tetrahydro-1-naphthalenone]
35 | – | 1840 nM | COc1cccc(/C=C2\CCc3cc(OCCn4ccnc4)ccc3C2=O)c1OC [Example 66, 2-[(E)-1-(2,3-Dimethoxyphenyl)methylidene]-6-[2-(1H-1-imidazolyl)ethoxy]-1,2,3,4-tetrahydro-1-naphthalenone]

From patent US6528535B2, “Bicyclic inhibitors of protein farnesyl transferase” (Warner-Lambert Company, priority 1997, dated 2003)
